Measurements published in ChEMBL document CHEMBL3390834, “Development of second generation epigenetic agents” (Medchemcomm, 2012).
Each block holds one molecule with its values, some of them ahead of it.

Assays:
[1] = target: Protein arginine N-methyltransferase 1 (Homo sapiens, UniProt Q99873); assay: Inhibition of human recombinant PRMT-1 using Npl3p as substrate
Homo sapiens [2] = organism: Homo sapiens; assay: Selectivity ratio of IC50 for human CARM-1 to IC50 for human recombinant PRMT-1
Homo sapiens [3] = organism: Homo sapiens; assay: Selectivity ratio of IC50 for SET7 (unknown origin) to IC50 for human recombinant PRMT-2
[4] = target: T1, NAD-dependent protein deacetylase sirtuin-2 (Homo sapiens, UniProt Q8IXJ6); assay: Inhibition of SIRT-2 (unknown origin)
T1 sequence (Q8IXJ6 whole entry): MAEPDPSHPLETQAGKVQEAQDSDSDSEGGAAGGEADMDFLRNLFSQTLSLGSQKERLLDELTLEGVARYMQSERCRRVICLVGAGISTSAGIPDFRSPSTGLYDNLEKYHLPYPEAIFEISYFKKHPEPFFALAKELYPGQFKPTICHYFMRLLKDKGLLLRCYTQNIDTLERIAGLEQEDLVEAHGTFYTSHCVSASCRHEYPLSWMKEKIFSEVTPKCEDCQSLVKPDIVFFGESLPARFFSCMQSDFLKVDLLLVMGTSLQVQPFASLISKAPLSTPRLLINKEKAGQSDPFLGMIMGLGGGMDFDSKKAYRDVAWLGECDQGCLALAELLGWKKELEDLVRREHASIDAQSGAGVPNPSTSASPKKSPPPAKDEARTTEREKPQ

[5] = target: T2, Lysine-specific demethylase 4E (Homo sapiens, UniProt B2RXH2); assay: Binding affinity to JMJD2E (unknown origin)
T2 sequence (B2RXH2 whole entry): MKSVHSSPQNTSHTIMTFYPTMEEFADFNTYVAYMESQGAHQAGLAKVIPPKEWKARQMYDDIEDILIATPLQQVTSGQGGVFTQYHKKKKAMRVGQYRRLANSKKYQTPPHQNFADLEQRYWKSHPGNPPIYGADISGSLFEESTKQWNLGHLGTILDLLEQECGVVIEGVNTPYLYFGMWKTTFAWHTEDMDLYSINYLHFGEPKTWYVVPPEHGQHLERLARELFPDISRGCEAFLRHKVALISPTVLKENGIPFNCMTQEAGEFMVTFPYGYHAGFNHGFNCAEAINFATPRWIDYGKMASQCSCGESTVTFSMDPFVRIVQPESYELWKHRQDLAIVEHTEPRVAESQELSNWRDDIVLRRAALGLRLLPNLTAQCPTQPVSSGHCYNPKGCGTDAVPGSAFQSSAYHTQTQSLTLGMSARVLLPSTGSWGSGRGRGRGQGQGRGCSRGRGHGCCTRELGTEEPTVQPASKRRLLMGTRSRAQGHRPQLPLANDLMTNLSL

Egl nine homolog 1 = Egl nine homolog 1 (Homo sapiens, UniProt Q9GZT9); assay: Inhibition of PHD-2 (unknown origin)
[6] = target: Lysine-specific demethylase 2A (Homo sapiens, UniProt Q9Y2K7); assay: Inhibition of FBXL11 (unknown origin) expressed in HEK293 cells; type: cell-based
[7] = target: NAD-dependent protein deacetylase sirtuin-1 (Homo sapiens, UniProt Q96EB6); assay: Inhibition of human SIRT-1
[8] = target: T1, NAD-dependent protein deacetylase sirtuin-2; assay: Inhibition of human SIRT-2
[9] = target: T3, Histone-arginine methyltransferase CARM1 (Homo sapiens, UniProt Q86X55); assay: Inhibition of full-length GST-tagged CARM-1 (unknown origin) expressed in Spodoptera frugiperda cells using histone H3 and tritiated-SAM as substrate
T3 sequence (Q86X55 whole entry): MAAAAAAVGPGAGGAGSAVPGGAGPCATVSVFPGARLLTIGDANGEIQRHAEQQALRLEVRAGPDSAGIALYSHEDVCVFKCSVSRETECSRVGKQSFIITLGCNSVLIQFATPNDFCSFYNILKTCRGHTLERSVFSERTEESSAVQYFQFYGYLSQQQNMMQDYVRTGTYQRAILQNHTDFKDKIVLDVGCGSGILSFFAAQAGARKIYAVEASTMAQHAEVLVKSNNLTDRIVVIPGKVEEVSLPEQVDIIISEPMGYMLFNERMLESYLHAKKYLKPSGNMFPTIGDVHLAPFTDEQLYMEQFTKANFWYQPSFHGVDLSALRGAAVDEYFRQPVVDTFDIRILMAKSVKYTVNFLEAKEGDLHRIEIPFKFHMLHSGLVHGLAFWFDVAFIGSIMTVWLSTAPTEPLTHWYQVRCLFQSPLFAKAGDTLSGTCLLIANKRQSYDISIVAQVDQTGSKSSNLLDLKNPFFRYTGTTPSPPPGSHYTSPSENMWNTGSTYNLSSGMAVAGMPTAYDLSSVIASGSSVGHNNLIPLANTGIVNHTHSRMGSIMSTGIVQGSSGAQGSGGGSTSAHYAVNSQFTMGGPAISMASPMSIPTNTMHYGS

[10] = target: T1, NAD-dependent protein deacetylase sirtuin-2; assay: Inhibition of human SIRT-2 using fluor de Lys as substrate after 2 hrs by fluorescence assay
[11] = target: T1, NAD-dependent protein deacetylase sirtuin-2
Description: Inhibition of recombinant human N-terminal His6-tagged SIRT-2 using ZMAL as substrate after 4 hrs by homogeneous fluorescent deacetylase assay

[12] = target: T4, Histone acetyltransferase p300 (Homo sapiens, UniProt Q09472); assay: Inhibition of p300 (unknown origin)
[13] = target: T3, Histone-arginine methyltransferase CARM1; assay: Inhibition of CARM-1 (unknown origin) using Histone H3 Arg-17 as substrate
[14] = target: Histone-lysine N-methyltransferase SUV39H1 (Homo sapiens, UniProt O43463); assay: Inhibition of SUV39H1 (unknown origin) by DELFIA
[15] = target: Histone-lysine N-methyltransferase EHMT2 (Homo sapiens, UniProt Q96KQ7)
Description: Inhibition of recombinant GST-tagged G9a (685 to 1000 amino acids) (unknown origin) expressed in Escherichia coli BL21 using biotinylated histone H3 peptide as substrate by DELFIA

Histone deacetylase [16] = assay: Inhibition of HDAC isolated from human HeLa cell nuclear extracts using Fluor de Lys as substrate after 30 mins by fluorescence assay; type: protein assay
Histone deacetylase [17] = assay: Inhibition of HDAC in human HeLa cells assessed as histone H3 hyperacetylation after 7 hrs; type: cell-based
Histone deacetylase [18] = assay: Inhibition of HDAC in human HeLa cells assessed as alpha-tubulin acetylation after 7 hrs; type: cell-based
[19] = target: T2, Lysine-specific demethylase 4E
Description: Inhibition of N-terminal His-6-tagged human JMJD2E (1 to 337 residues) expressed in Escherichia coli by MALDI-TOF/MS analysis

CREB-binding protein = CREB-binding protein (Homo sapiens, UniProt Q92793); assay: Inhibition of CBP (unknown origin)
[20] = target: Histone acetyltransferase KAT2A (Homo sapiens, UniProt Q92830); assay: Inhibition of human GCN5
Histone deacetylase 1 = Histone deacetylase 1 (Homo sapiens, UniProt Q13547)
Description: Inhibition of HDAC-1 (unknown origin) using (FAM)-labeled acetylated peptide as substrate after 17 hrs by fluorescence assay

[21] = target: T4, Histone acetyltransferase p300
Description: Inhibition of His6-tagged recombinant full length p300 (unknown origin) expressed in baculovirus infected insect Sf21 cells using [3H]acetyl-CoA as substrate preincubated for 10 mins followed by substrate addition measured after 10 mins by liquid scintillation counting analysis

Histone deacetylase 3 = Histone deacetylase 3 (Homo sapiens, UniProt O15379); assay: Inhibition of HDAC-3 (unknown origin) using (FAM)-labeled acetylated peptide as substrate after 17 hrs by fluorescence assay
Histone deacetylase 2 = Histone deacetylase 2 (Homo sapiens, UniProt Q92769); assay: Inhibition of HDAC-2 (unknown origin) using (FAM)-labeled acetylated peptide as substrate after 17 hrs by fluorescence assay
[22] = Inhibition of HAT isolated from human HeLa cell nuclear extracts using biotinylated histone H4 peptide as substrate after 8 mins
[23] = target: Lysine-specific demethylase 4A (Homo sapiens, UniProt O75164); assay: Inhibition of JMJD2A (unknown origin) using ARK(me3)STGGK peptide as substrate preincubated for 1 to 30 mins followed by substrate addition by MALDI-TOF/MS analysis

T4 sequence (Q09472 whole entry): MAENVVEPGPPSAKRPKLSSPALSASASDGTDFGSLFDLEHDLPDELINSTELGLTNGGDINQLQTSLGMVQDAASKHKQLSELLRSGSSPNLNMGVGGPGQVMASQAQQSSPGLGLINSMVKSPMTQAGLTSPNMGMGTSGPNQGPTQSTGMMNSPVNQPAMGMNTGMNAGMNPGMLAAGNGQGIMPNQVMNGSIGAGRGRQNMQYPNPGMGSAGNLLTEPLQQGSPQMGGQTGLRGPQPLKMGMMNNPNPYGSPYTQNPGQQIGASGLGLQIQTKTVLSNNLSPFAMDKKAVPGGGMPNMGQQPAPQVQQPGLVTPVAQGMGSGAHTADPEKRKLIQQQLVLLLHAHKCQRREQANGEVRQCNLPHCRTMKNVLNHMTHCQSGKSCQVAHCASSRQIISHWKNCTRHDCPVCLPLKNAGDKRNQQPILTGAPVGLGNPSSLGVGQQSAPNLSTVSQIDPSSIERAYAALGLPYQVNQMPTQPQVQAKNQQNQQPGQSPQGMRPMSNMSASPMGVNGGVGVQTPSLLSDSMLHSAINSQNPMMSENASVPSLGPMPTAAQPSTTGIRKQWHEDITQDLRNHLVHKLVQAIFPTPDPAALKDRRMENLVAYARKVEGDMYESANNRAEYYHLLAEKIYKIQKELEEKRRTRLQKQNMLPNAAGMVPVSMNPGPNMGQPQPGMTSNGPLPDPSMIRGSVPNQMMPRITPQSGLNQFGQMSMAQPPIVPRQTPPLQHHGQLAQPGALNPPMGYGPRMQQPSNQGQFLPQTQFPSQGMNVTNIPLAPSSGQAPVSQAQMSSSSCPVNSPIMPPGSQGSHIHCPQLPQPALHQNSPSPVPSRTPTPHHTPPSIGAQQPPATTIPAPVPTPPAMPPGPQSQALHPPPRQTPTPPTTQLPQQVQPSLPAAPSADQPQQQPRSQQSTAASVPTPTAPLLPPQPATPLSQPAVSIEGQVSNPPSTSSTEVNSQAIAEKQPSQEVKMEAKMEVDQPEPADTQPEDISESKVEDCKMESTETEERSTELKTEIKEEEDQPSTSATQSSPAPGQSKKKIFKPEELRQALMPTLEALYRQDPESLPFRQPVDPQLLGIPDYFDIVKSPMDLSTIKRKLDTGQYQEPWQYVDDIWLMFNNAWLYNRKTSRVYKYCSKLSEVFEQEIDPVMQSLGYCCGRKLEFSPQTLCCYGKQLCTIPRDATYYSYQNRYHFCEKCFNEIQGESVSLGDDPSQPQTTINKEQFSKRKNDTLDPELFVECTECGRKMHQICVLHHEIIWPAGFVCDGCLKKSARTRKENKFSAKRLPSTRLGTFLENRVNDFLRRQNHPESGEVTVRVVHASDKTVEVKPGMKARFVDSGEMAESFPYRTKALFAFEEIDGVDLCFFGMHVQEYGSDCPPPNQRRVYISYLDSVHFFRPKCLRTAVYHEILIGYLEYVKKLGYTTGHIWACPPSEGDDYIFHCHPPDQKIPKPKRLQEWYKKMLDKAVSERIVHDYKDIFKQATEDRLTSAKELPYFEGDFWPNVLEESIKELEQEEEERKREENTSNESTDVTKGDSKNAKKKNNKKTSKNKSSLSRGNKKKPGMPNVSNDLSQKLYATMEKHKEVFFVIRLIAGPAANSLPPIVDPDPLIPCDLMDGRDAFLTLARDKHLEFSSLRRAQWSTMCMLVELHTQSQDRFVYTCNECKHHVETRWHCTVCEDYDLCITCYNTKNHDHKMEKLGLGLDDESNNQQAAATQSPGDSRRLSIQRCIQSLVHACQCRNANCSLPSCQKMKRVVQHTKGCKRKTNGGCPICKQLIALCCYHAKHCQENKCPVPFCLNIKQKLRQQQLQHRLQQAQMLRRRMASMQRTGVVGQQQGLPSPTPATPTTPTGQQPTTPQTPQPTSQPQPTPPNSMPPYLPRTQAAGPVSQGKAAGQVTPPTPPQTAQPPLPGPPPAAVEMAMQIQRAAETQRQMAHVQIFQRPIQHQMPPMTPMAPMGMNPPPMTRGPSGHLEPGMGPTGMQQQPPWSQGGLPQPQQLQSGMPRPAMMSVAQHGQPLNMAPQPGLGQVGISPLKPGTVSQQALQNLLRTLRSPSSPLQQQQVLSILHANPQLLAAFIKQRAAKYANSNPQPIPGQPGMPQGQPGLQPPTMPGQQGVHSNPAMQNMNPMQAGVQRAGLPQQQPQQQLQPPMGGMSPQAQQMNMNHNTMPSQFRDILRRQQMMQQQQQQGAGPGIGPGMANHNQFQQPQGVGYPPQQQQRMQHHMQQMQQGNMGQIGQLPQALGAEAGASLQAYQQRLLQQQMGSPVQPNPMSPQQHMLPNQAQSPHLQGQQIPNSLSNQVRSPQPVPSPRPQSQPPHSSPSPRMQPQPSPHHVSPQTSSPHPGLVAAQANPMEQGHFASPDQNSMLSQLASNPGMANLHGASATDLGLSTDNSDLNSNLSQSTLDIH
Histone deacetylase 1, sequence (Q13547 whole entry): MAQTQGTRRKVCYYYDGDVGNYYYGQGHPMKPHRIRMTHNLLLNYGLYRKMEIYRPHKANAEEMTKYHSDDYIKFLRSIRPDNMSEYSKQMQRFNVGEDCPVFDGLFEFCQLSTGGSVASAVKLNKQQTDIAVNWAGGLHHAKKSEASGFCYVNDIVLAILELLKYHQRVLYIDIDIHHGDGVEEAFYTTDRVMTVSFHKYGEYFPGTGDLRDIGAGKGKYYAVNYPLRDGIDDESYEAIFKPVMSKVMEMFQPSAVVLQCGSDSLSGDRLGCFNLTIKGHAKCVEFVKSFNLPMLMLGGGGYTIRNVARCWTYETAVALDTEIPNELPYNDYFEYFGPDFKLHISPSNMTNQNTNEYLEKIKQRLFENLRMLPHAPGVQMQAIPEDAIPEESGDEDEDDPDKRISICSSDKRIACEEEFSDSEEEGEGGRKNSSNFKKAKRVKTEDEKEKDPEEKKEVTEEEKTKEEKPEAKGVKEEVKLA
Histone deacetylase 3, sequence (O15379 whole entry): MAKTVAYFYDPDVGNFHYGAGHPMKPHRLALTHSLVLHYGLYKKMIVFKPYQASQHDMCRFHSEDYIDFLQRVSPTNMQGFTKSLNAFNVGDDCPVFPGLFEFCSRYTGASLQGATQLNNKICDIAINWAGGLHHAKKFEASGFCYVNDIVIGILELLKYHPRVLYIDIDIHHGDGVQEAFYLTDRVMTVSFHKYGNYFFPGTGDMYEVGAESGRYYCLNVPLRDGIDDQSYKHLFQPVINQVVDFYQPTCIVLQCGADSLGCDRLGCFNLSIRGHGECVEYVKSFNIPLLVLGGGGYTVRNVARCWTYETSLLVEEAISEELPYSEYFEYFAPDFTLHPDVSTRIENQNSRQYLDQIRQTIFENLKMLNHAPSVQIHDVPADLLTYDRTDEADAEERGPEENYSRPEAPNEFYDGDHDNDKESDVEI
Lysine-specific demethylase 2A, sequence (Q9Y2K7 whole entry): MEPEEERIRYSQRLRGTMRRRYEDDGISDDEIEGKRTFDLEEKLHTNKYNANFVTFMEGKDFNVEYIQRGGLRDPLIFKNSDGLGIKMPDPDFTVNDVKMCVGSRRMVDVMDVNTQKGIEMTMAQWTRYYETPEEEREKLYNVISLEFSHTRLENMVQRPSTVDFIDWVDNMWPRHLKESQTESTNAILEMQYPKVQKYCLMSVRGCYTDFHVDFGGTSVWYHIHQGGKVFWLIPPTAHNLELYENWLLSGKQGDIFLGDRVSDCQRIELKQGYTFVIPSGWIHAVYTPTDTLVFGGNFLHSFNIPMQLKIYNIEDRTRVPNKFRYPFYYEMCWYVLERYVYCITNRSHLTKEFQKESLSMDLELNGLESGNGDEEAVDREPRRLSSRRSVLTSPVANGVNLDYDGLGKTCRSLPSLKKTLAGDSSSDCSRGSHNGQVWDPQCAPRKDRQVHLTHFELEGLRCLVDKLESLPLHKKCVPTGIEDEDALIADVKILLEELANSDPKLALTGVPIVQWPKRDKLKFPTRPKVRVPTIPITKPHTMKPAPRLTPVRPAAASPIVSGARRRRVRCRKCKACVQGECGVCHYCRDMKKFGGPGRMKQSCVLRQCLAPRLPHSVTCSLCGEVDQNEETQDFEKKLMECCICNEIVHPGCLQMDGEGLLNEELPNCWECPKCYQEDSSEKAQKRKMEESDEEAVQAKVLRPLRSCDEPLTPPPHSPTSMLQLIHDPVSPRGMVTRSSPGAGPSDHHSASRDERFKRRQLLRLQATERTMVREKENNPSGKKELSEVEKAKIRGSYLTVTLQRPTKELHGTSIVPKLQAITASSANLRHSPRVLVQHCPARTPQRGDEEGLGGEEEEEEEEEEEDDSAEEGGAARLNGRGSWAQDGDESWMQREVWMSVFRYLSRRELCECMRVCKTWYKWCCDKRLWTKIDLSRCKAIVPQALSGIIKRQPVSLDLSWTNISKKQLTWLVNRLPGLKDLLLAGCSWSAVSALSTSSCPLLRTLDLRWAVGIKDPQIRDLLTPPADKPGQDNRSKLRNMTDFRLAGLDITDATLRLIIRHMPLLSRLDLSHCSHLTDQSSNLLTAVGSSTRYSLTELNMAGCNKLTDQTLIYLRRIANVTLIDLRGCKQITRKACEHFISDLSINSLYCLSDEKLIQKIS
Histone deacetylase 2, sequence (Q92769 whole entry): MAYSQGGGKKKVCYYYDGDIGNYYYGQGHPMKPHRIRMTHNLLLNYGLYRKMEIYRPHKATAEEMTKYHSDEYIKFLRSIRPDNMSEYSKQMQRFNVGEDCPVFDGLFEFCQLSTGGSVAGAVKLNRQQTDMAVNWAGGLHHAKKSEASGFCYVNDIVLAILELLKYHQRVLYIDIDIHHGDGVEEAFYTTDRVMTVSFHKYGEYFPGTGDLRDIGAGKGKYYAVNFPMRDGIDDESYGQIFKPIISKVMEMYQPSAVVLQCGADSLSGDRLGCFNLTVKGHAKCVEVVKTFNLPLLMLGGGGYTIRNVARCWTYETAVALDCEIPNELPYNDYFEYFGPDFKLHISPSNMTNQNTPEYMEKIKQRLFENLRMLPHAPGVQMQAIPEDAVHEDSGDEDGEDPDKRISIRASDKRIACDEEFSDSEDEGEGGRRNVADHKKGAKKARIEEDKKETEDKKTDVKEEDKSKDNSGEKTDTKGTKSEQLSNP

SMILES: O=C(/C=C/c1ccc(O)c(Br)c1)/C=C/c1cc(Br)c(O)c(Br)c1
IC50 [1]: 3 µM | Ratio IC50 (Homo sapiens [2]): 30 | Ratio IC50 (Homo sapiens [3]): 10

SMILES: [N-]=[N+]=Nc1ccc(C(=O)N[C@@H](CCCCNC(=O)COCCOCCNC(=O)CCCC[C@@H]2SC[C@@H]3NC(=O)N[C@@H]32)C(=O)NCCCNC(=O)c2ccc(O)c3ncccc23)cc1
Kd [5]: 58.4 µM | IC50 (Egl nine homolog 1): 41.8 µM | IC50 [6]: 9.1 µM

SMILES: CC(C)=CCC/C(C)=C/C[C@@H]1C[C@@]2(CC=C(C)C)C(=O)[C@](CC=C(C)C)(C(=O)C(C(=O)c3ccc(O)c(O)c3)=C2O)[C@@]1(C)CCC=C(C)C
IC50 [7]: 9 µM | IC50 [8]: 22 µM

SMILES: CCCCCCCCCCC[C@]1(CO)CCCC(=O)O[C@](CO)(CCCCCCCCCCC)CCCC(=O)O1
IC50 [10]: 0.176 µM | IC50 [11]: 2 µM

SMILES: CC(=O)N[C@@H](CCCCNC(=O)CSCCNC(=O)CCNC(=O)[C@H](O)C(C)(C)COP(=O)(O)OP(=O)(O)OC[C@H]1O[C@@H](n2cnc3c(N)ncnc32)[C@H](O)[C@@H]1OP(=O)(O)O)C(N)=O
Ki [12]: 0.019 µM

SMILES: O=c1oc2c(O)c(O)cc3c(=O)oc4c(O)c(O)cc1c4c23 [ELLAGIC ACID]
IC50 [13]: 25 µM

SMILES: C[C@](N)(Cc1ccc(O)c(O)c1)C(=O)O [METHYLDOPA]
IC50 [19]: 3 µM

SMILES: C=C1C(=O)O[C@@H](CCC)[C@@H]1C(=O)O
IC50 (CREB-binding protein): 500 µM | IC50 [20]: 100 µM

SMILES: Nc1ccccc1NC(=O)CCCCCCC(=O)Nc1cccc(-c2cn(-c3ccccc3)nn2)c1
IC50 (Histone deacetylase 1): > 30 µM

SMILES: C=C(C)[C@@H](CC=C(C)C)C[C@@]12C[C@@H](CC=C(C)C)C(C)(C)[C@@](CC=C(C)C)(C(=O)C(C(=O)c3ccc(O)c(O)c3)=C1O)C2=O [GARCINOL]
IC50 [21]: 7 µM

SMILES: CCCCCCCCCCCCCC(Oc1cccc(OCc2ccccc2)c1)C(=O)O (stereo not given)
IC50 [22]: 6 µM

SMILES: CCNC(=S)SSC(=S)NCC
IC50 [23]: 15.3 µM

Second part, the molecule after the results:

IC50 [4]: 74 µM
SMILES: NC(=O)c1ccccc1Nc1ccccc1 [ANILINOBENZAMIDE]

IC50 [9]: 0.03 µM
SMILES: CNCCN1CCC(c2ccc3[nH]c(-c4ccccc4OC)c(F)c3c2)CC1

IC50 [9]: 0.027 µM
SMILES: C[C@H](N)C(=O)NCc1cccc(-n2nc(C(F)(F)F)cc2-c2nnc(-c3cccc4[nH]ccc34)o2)c1

IC50 [14]: 1.1 µM | IC50 [15]: 4.7 µM
SMILES: COc1ccc(C(=O)Oc2ccc(CCn3c(NC(=O)c4ccc(C(F)(F)F)cc4)nc4cc(C(=O)O)ccc43)cc2)cc1

IC50 (Histone deacetylase [16]): 0.045 µM | EC50 (Histone deacetylase [17]): 0.025 µM | EC50 (Histone deacetylase [18]): 0.325 µM
SMILES: CC(=O)SCC(=O)c1ccc(NS(=O)(=O)c2ccc(OCCCN(C)C)cc2)nc1

IC50 (Histone deacetylase 3): 0.988 µM | IC50 (Histone deacetylase 2): 4.8 µM | IC50 (Histone deacetylase 1): 14.6 µM
SMILES: Nc1ccccc1NC(=O)CCCCCCC(=O)Nc1ccccc1N
